From patent US20210045385A1, “PYRIDAZINONE-SUBSTITUTED KETOXIMES AS HERBICIDES” (FMC Corporation, priority 2018, published 2021)

What was measured:
Format in all cases: in vivo
[1] = system: galium (catchweed bedstraw, Galium aparine); assay: Test C postemergence, visual plant response rating
In short: (§1)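 Visual injury on a 0 (no effect) to 100 (complete control) scale versus untreated controls, scored approximately 10 d after treatment under greenhouse conditions. Treatments used surfactant-containing non-phytotoxic solvent formulations, sprayed onto loam–sand soil preemergence or onto one- to two-leaf plants 2–10 cm tall postemergence.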

[2] = system: foxtail, giant (giant foxtail, Setaria faberi); assay: Test C postemergence, visual plant response rating
In short: as §1

[3] = system: pigweed (Amaranthus retroflexus); assay: Test C postemergence, visual plant response rating
In short: as §1

corn (Zea mays) = assay: Test C postemergence, visual plant response rating
In short: as §1

kochia (Bassia scoparia) [4] = assay: Test C postemergence, visual plant response rating
In short: as §1

[5] = system: wheat (Triticum aestivum); assay: Test C postemergence, visual plant response rating
In short: as §1

[6] = system: Italian ryegrass (Lolium mutiflorum); assay: Test C postemergence, visual plant response rating
In short: as §1

[7] = system: ragweed (common ragweed, Ambrosia artemisiifolia); assay: Test C postemergence, visual plant response rating
In short: as §1

[8] = system: barnyardgrass (Echinochloa crus-galli); assay: Test C postemergence, visual plant response rating
In short: as §1

[9] = system: blackgrass (Alopecurus myosuroides); assay: Test C postemergence, visual plant response rating
In short: as §1

rice (Oryza sativa) = assay: Test D flooded paddy test, visual plant response rating; conditions: 250 g ai/ha, scale 0 to 100 (0 no effect, 100 complete control), 13 to 15 d
In short: (§2)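 Rating is visual, on a 0 (no effect) to 100 (complete control) scale versus controls, taken 13 to 15 d after treatment in a greenhouse. Treatment went into paddy water kept 3 cm above the soil surface, with plants at the 2-leaf stage.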

[10] = system: barnyardgrass (Echinochloa crus-galli); assay: as above; conditions: 250 g ai/ha, scale 0 to 100 (0 no effect, 100 complete control), 13 to 15 d
In short: as §2

[11] = system: duck salad (Heteranthera limosa); assay: as above; conditions: 250 g ai/ha, scale 0 to 100 (0 no effect, 100 complete control), 13 to 15 d
In short: as §2

[12] = system: sedge umbrella (small-flower umbrella sedge, Cyperus difformis); assay: as above; conditions: 250 g ai/ha, scale 0 to 100 (0 no effect, 100 complete control), 13 to 15 d
In short: as §2

[13] = system: foxtail, giant (giant foxtail, Setaria faberi); assay: Test C preemergence, visual plant response rating
In short: as §1

[14] = system: pigweed (Amaranthus retroflexus); assay: Test C preemergence, visual plant response rating
In short: as §1

kochia (Bassia scoparia) [15] = assay: Test C preemergence, visual plant response rating
In short: as §1

[16] = system: Italian ryegrass (Lolium mutiflorum); assay: Test C preemergence, visual plant response rating
In short: as §1

[17] = system: ragweed (common ragweed, Ambrosia artemisiifolia); assay: Test C preemergence, visual plant response rating
In short: as §1

[18] = system: barnyardgrass (Echinochloa crus-galli); assay: Test C preemergence, visual plant response rating
In short: as §1

[19] = Test C, postemergence, 1000 g ai/ha
[20] = Test C, postemergence, 125 g ai/ha
[21] = Test C, 31 g ai/ha, 0 is no effect, 100 is complete control
[22] = Test C, 125 g ai/ha, 0 is no effect, 100 is complete control

| SMILES | Plant response rating, Rice (Flood) (rice (Oryza sativa)) | Plant response rating, Barnyardgrass (Flood) [10] | Plant response rating, Ducksalad (Flood) [11] | Plant response rating, Sedge, Umbrella (Flood) [12] | Galium plant response rating (0 to 100 scale) ([1]; Postemergence, 31 g ai/ha) | Galium plant response rating (0 to 100 scale) [1, 20] | Foxtail, Giant plant response rating (0 to 100 scale) ([2]; Postemergence, 31 g ai/ha) | Foxtail, Giant plant response rating (0 to 100 scale) [2, 20] | Pigweed plant response rating (0 to 100 scale) ([3]; Postemergence, 31 g ai/ha) | Pigweed plant response rating (0 to 100 scale) [3, 20] | Corn plant response rating (0 to 100 scale) (corn (Zea mays); Postemergence, 31 g ai/ha) | Corn plant response rating (0 to 100 scale) (corn (Zea mays); [20]) | Kochia plant response rating (0 to 100 scale) (kochia (Bassia scoparia) [4]; Postemergence, 31 g ai/ha) | Kochia plant response rating (0 to 100 scale) (kochia (Bassia scoparia) [4]; [20]) | Wheat plant response rating (0 to 100 scale) ([5]; Postemergence, 31 g ai/ha) | Wheat plant response rating (0 to 100 scale) [5, 20] | Ryegrass, Italian plant response rating (0 to 100 scale) ([6]; Postemergence, 31 g ai/ha) | Ryegrass, Italian plant response rating (0 to 100 scale) [6, 20] | Ragweed plant response rating (0 to 100 scale) ([7]; Postemergence, 31 g ai/ha) | Ragweed plant response rating (0 to 100 scale) [7, 20] | further results |
| --- | --- | --- | --- | --- | --- | --- | --- | --- | --- | --- | --- | --- | --- | --- | --- | --- | --- | --- | --- | --- | --- |
| C#CCO/N=C(/c1c(O)cnn(C)c1=O)c1cccc2ccccc12 [Compound 221] | 0 | 0 | 0 | 0 | – | – | – | – | – | – | – | – | – | – | – | – | – | – | – | – | Galium plant response rating (0 to 100 scale) [1, 19]: 100; Foxtail, Giant plant response rating (0 to 100 scale) [2, 19]: 60; Pigweed plant response rating (0 to 100 scale) [3, 19]: 90; Corn plant response rating (0 to 100 scale) (corn (Zea mays); [19]): 20; Kochia plant response rating (0 to 100 scale) (kochia (Bassia scoparia) [4]; [19]): 70; Wheat plant response rating (0 to 100 scale) [5, 19]: 60; Ryegrass, Italian plant response rating (0 to 100 scale) [6, 19]: 100; Ragweed plant response rating (0 to 100 scale) [7, 19]: 80; Barnyardgrass plant response rating (0 to 100 scale) [8, 19]: 70; Blackgrass plant response rating (0 to 100 scale) [9, 19]: 90; Foxtail, Giant plant response rating (0 to 100 scale) ([13]; 1000 g ai/ha): 100; Pigweed plant response rating (0 to 100 scale) ([14]; 1000 g ai/ha): 100; Kochia plant response rating (0 to 100 scale) (kochia (Bassia scoparia) [15]; 1000 g ai/ha): 60; Ryegrass, Italian plant response rating (0 to 100 scale) ([16]; 1000 g ai/ha): 100; Ragweed plant response rating (0 to 100 scale) ([17]; 1000 g ai/ha): 80; Barnyardgrass plant response rating (0 to 100 scale) ([18]; 1000 g ai/ha): 30 |
| C#CCO/N=C(\c1cc(Cl)cc(Br)c1)c1c(O)c(C)nn(C)c1=O [Compound 292] | 0 | 0 | 45 | 55 | 100 | 100 | 60 | 100 | 60 | 90 | 0 | 40 | 60 | 100 | 60 | 100 | 100 | 100 | 100 | 100 | Barnyardgrass plant response rating (0 to 100 scale) ([8]; Postemergence, 31 g ai/ha): 30; Barnyardgrass plant response rating (0 to 100 scale) [8, 20]: 70; Blackgrass plant response rating (0 to 100 scale) ([9]; Postemergence, 31 g ai/ha): 0; Blackgrass plant response rating (0 to 100 scale) [9, 20]: 80; Foxtail, Giant plant response rating (0 to 100 scale) [13, 21]: 70; Foxtail, Giant plant response rating (0 to 100 scale) [13, 22]: 100; Pigweed plant response rating (0 to 100 scale) [14, 21]: 50; Pigweed plant response rating (0 to 100 scale) [14, 22]: 100; Kochia plant response rating (0 to 100 scale) (kochia (Bassia scoparia) [15]; [21]): 30; Kochia plant response rating (0 to 100 scale) (kochia (Bassia scoparia) [15]; [22]): 100; Ryegrass, Italian plant response rating (0 to 100 scale) [16, 21]: 80; Ryegrass, Italian plant response rating (0 to 100 scale) [16, 22]: 100; Ragweed plant response rating (0 to 100 scale) [17, 21]: 90; Ragweed plant response rating (0 to 100 scale) [17, 22]: 100; Barnyardgrass plant response rating (0 to 100 scale) [18, 21]: 60; Barnyardgrass plant response rating (0 to 100 scale) [18, 22]: 100 |
| CO/N=C(\c1c(O)c(C)nn(C)c1=O)c1cccc2cc(Cl)ccc12 [Compound 300] | 20 | 15 | 55 | 45 | 90 | 100 | 60 | 80 | 80 | 80 | 10 | 30 | 40 | 50 | 0 | 0 | 10 | 40 | 30 | 90 | Barnyardgrass plant response rating (0 to 100 scale) ([8]; Postemergence, 31 g ai/ha): 30; Barnyardgrass plant response rating (0 to 100 scale) [8, 20]: 70; Blackgrass plant response rating (0 to 100 scale) ([9]; Postemergence, 31 g ai/ha): 30; Blackgrass plant response rating (0 to 100 scale) [9, 20]: 80; Foxtail, Giant plant response rating (0 to 100 scale) [13, 21]: 40; Foxtail, Giant plant response rating (0 to 100 scale) [13, 22]: 80; Pigweed plant response rating (0 to 100 scale) [14, 21]: 30; Pigweed plant response rating (0 to 100 scale) [14, 22]: 90; Kochia plant response rating (0 to 100 scale) (kochia (Bassia scoparia) [15]; [21]): 0; Kochia plant response rating (0 to 100 scale) (kochia (Bassia scoparia) [15]; [22]): 30; Ryegrass, Italian plant response rating (0 to 100 scale) [16, 21]: 10; Ryegrass, Italian plant response rating (0 to 100 scale) [16, 22]: 70; Ragweed plant response rating (0 to 100 scale) [17, 21]: 0; Ragweed plant response rating (0 to 100 scale) [17, 22]: 20; Barnyardgrass plant response rating (0 to 100 scale) [18, 21]: 40; Barnyardgrass plant response rating (0 to 100 scale) [18, 22]: 60 |
| CON=C(c1cccc(OCC(F)(F)F)c1)c1c(O)c(C)nn(C)c1=O [Compound 198] | 0 | 0 | 0 | 0 | 0 | 20 | 20 | 70 | 0 | 10 | 0 | 20 | 0 | 0 | 0 | 0 | 0 | 60 | 0 | 0 | Barnyardgrass plant response rating (0 to 100 scale) ([8]; Postemergence, 31 g ai/ha): 20; Barnyardgrass plant response rating (0 to 100 scale) [8, 20]: 80; Blackgrass plant response rating (0 to 100 scale) ([9]; Postemergence, 31 g ai/ha): 0; Blackgrass plant response rating (0 to 100 scale) [9, 20]: 40; Foxtail, Giant plant response rating (0 to 100 scale) [13, 21]: 0; Foxtail, Giant plant response rating (0 to 100 scale) [13, 22]: 70; Pigweed plant response rating (0 to 100 scale) [14, 21]: 0; Pigweed plant response rating (0 to 100 scale) [14, 22]: 0; Kochia plant response rating (0 to 100 scale) (kochia (Bassia scoparia) [15]; [21]): 0; Kochia plant response rating (0 to 100 scale) (kochia (Bassia scoparia) [15]; [22]): 0; Ryegrass, Italian plant response rating (0 to 100 scale) [16, 21]: 0; Ryegrass, Italian plant response rating (0 to 100 scale) [16, 22]: 70; Ragweed plant response rating (0 to 100 scale) [17, 21]: 0; Ragweed plant response rating (0 to 100 scale) [17, 22]: 0; Barnyardgrass plant response rating (0 to 100 scale) [18, 21]: 0; Barnyardgrass plant response rating (0 to 100 scale) [18, 22]: 40 |
| CON=C(c1ccc(F)c(Br)c1)c1c(O)c(C)nn(C)c1=O [Compound 177] | 0 | 0 | 0 | 0 | 40 | 80 | 10 | 10 | 40 | 60 | 0 | 0 | 10 | 70 | 0 | 0 | 30 | 60 | 20 | 60 | Barnyardgrass plant response rating (0 to 100 scale) ([8]; Postemergence, 31 g ai/ha): 0; Barnyardgrass plant response rating (0 to 100 scale) [8, 20]: 20; Blackgrass plant response rating (0 to 100 scale) ([9]; Postemergence, 31 g ai/ha): 0; Blackgrass plant response rating (0 to 100 scale) [9, 20]: 0; Foxtail, Giant plant response rating (0 to 100 scale) ([13]; 125 g ai/ha): 10; Foxtail, Giant plant response rating (0 to 100 scale) [13, 21]: 0; Pigweed plant response rating (0 to 100 scale) ([14]; 125 g ai/ha): 10; Pigweed plant response rating (0 to 100 scale) [14, 21]: 0; Kochia plant response rating (0 to 100 scale) (kochia (Bassia scoparia) [15]; 125 g ai/ha): 0; Kochia plant response rating (0 to 100 scale) (kochia (Bassia scoparia) [15]; [21]): 0; Ryegrass, Italian plant response rating (0 to 100 scale) ([16]; 125 g ai/ha): 10; Ryegrass, Italian plant response rating (0 to 100 scale) [16, 21]: 0; Ragweed plant response rating (0 to 100 scale) ([17]; 125 g ai/ha): 20; Ragweed plant response rating (0 to 100 scale) [17, 21]: 0; Barnyardgrass plant response rating (0 to 100 scale) ([18]; 125 g ai/ha): 60; Barnyardgrass plant response rating (0 to 100 scale) [18, 21]: 40 |
